Laboratory results published in publication PMC8225959, “Clickable Radiocomplexes With Trivalent Radiometals for Cancer Theranostics: In vitro and in vivo Studies” (Frontiers in Medicine, 2021).

Columns and labels:
PC3 xenografts = assay: Ex vivo biodistribution of [90Y]Y-DOTA-Tz in mice bearing PC3 xenografts; settings: PC3 xenograft mice
From the text: Currently, we are investigating the application of click chemistry using biomolecules that target prostate cancer. Therefore, since a non-specific tumor uptake might interfere with the specificity of the pre-targeting approach, we have performed in vivo studies of [^90Y]Y-DOTA-Tz in mice bearing PC3 xenografts to assess the possible non-specific uptake of the clickable radiocomplex in the tumor and in the tumor microenvironment. […] This type of optical imaging offers a high spatial resolution, and despite a limited penetration depth allows to image ^90Y, which is not easily feasible using PET or SPECT imaging ([32]). […] At the selected time points the majority of the compound was retrieved in the urine, with 88 and 96% of the I.D. excreted 1 and 2 h post-injection, respectively. page 9: from whole animal body. Blood samples were taken by cardiac puncture at sacrifice. […] The animals were kept under […] volume of approximate 390 ± 190 mm3. […] […] carried out on groups of 8 mice (n = 4). […] The animals were weighed and dissected.

[1] = Stability of the [90Y]Y-DOTA-Tz preparation (HPLC, radiolysis); type: physicochemical
Description: The radiolabelling with ^90Y was performed following the same procedure previously optimized for ^111In, using a buffer of 0.1 M ammonium acetate at pH 7 and heating the mixture at 80°C for 15 min. The DOTA-Tz chelator was added to a final concentration of 400–500 μM to yield [^90Y]Y-DOTA-Tz with specific activities up to 3.3 MBq/nmol and radiochemical yields above 90% (Supplementary Figure 4A). The radiocomplex [^90Y]Y-DOTA-Tz was synthesized with ~130 MBq of [^90Y]YCl3 and obtained in very high specific activity, after separation from the non-labeled DOTA-Tz chelator. The radiocomplex was recovered into phosphate buffer at pH 8 to neutralize the residual TFA from the HPLC mobile phase before its use in future biological studies. […] In order to stabilize the [^90Y]Y-DOTA-Tz preparation, a suitable ratio between the volume of phosphate buffer solution at pH 8 to neutralize the TFA from the HPLC purification and ascorbic acid as a radiolytic stabilizer had to be optimized. In initial experiments, the use of ascorbic acid as a buffer in the radiolabelling procedure led to the degradation of the tetrazine moiety. Similar effect was seen when the ascorbic acid solution (50 mg/mL) was added to the solution after labeling. […]

PC3 tumor = assay: Cerenkov luminescence imaging of PC3 tumor-bearing mice pretargeted with TCO-PEG4-AR then [90Y]Y-DOTA-Tz; type: in vivo; settings: 1 nmol TCO-PEG4-AR, radiocomplex after 4 h
Description: The Cerenkov Luminescence Imaging of the prostate cancer PC3 tumor-bearing mice was carried out at different time points (15 min, 1 and 2 h) after intravenous injection of [^90Y]Y-DOTA-Tz. […] Thereafter, the CLI imaging of the PC3 tumor-bearing mice was carried out at different time points (15 min, 1 h). The images were obtained using PhotonIMAGER™ (BioSpace Lab).

[2] = 1 h p.i., listed as [^90Y]Y-DOTA-Tz
[3] = 2 h p.i., listed as [^90Y]Y-DOTA-Tz

O=C([O-])CN1CCN(CC(=O)[O-])CCN(CC(=O)NCc2ccc(-c3nncnn3)cc2)CCN(CC(=O)[O-])CC1.[90Y+3] [[90Y]Y-DOTA-Tz]
Biodistribution: Blood (PC3 xenografts; 1 h p.i.): 1.59 ± 0.62 % I.D./g | Biodistribution: Bone (PC3 xenografts; 1 h p.i.): 1.04 ± 0.25 % I.D./g | Biodistribution: Intestine (PC3 xenografts; 1 h p.i.): 0.41 ± 0.2 % I.D./g | Biodistribution: Kidneys (PC3 xenografts; 1 h p.i.): 3.65 ± 0.49 % I.D./g | Biodistribution: Liver (PC3 xenografts; 1 h p.i.): 0.76 ± 0.07 % I.D./g | Biodistribution: Lung (PC3 xenografts; 1 h p.i.): 1.24 ± 0.32 % I.D./g | Biodistribution: Muscle (PC3 xenografts; 1 h p.i.): 0.5 ± 0.2 % I.D./g | Biodistribution: Pancreas (PC3 xenografts; 1 h p.i.): 0.7 ± 0.32 % I.D./g | Biodistribution: Salivary Gland (PC3 xenografts; 1 h p.i.): 0.68 ± 0.12 % I.D./g | Biodistribution: Spleen (PC3 xenografts; 1 h p.i.): 1 ± 0.27 % I.D./g | Biodistribution: Stomach (PC3 xenografts; 1 h p.i.): 0.65 ± 0.33 % I.D./g | Biodistribution: Tumour (PC3 xenografts; 1 h p.i.): 1.0 ± 0.4 % I.D./g | Biodistribution: Blood (PC3 xenografts; [2]): 1.59 % I.D./g | Biodistribution: Kidneys (PC3 xenografts; [2]): 3.6 % I.D./g | Biodistribution: Blood (PC3 xenografts; 2 h p.i.): 0.22 ± 0.01 % I.D./g | Biodistribution: Bone (PC3 xenografts; 2 h p.i.): 0.54 ± 0.04 % I.D./g | Biodistribution: Intestine (PC3 xenografts; 2 h p.i.): 0.17 ± 0.05 % I.D./g | Biodistribution: Kidneys (PC3 xenografts; 2 h p.i.): 2.54 ± 0.71 % I.D./g | Biodistribution: Liver (PC3 xenografts; 2 h p.i.): 0.49 ± 0.15 % I.D./g | Biodistribution: Lung (PC3 xenografts; 2 h p.i.): 0.31 ± 0.04 % I.D./g | Biodistribution: Muscle (PC3 xenografts; 2 h p.i.): 0.15 ± 0.01 % I.D./g | Biodistribution: Pancreas (PC3 xenografts; 2 h p.i.): 0.27 ± 0.12 % I.D./g | Biodistribution: Salivary Gland (PC3 xenografts; 2 h p.i.): 0.17 ± 0.02 % I.D./g | Biodistribution: Spleen (PC3 xenografts; 2 h p.i.): 0.33 ± 0.16 % I.D./g | Biodistribution: Stomach (PC3 xenografts; 2 h p.i.): 0.23 ± 0.08 % I.D./g | Biodistribution: Tumour (PC3 xenografts; 2 h p.i.): 0.37 ± 0.17 % I.D./g | Biodistribution: Blood (PC3 xenografts; [3]): 0.22 % I.D./g | Biodistribution: Kidneys (PC3 xenografts; [3]): 2.5 % I.D./g | Biodistribution: Tumour (PC3 xenografts; [3]): 0.37 % I.D./g | in vitro stability of the preparation ([1]; 3 μL ascorbic acid (50 mg/mL) and 147 μL phosphate buffer pH 8, up to 20 h after the radiolabelling): excellent in vitro stability | stability of the preparation ([1]; recovered into phosphate buffer pH 8, no stabilizer, after 2 h at room temperature): high degradation | Cerenkov imaging: tumor uptake (PC3 tumor; images at 15 min p.i.): some tumor uptake | Cerenkov imaging: activity localization (PC3 tumor; images at 1 h after the injection): majority of the activity localized in the kidneys
